# Target: T1, human mAChR M4 (Homo sapiens, UniProt P08173)
# T1 construct: expressed in transfected cells; host or cells: CHO-K1 (American Type Culture Collection), stably expressing hM4 and Gqi5
# T1 sequence (P08173 1-479): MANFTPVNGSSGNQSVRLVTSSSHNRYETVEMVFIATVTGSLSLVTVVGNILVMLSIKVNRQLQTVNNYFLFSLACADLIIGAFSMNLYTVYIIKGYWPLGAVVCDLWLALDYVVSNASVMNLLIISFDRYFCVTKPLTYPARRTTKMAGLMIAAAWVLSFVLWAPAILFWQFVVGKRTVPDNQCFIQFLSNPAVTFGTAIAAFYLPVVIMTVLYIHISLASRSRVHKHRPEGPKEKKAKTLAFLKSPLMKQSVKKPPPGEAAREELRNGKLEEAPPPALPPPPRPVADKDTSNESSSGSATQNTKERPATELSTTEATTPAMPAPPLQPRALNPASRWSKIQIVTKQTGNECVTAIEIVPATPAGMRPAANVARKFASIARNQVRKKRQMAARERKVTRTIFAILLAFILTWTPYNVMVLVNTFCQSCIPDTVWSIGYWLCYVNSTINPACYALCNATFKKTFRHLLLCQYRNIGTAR
# Test: mAChR M4 cell-based functional assay: calcium mobilization (Fluo-4, FDSS), potentiation of EC20 acetylcholine response in hM4-Gqi5 CHO-K1 cells
# Conditions: human M4; for Emax at 30 µM: CHO-K1, % ACh maximum at 30 μM; for EC50: potentiation of EC20 acetylcholine response, calcium mobilization
# Procedure, shortened: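 Readout is the fluorescence-ratio rise at 1 Hz on FDSS, with PAM activity taken as concentration-dependent enhancement of the EC20 acetylcholine response, fitted four-parameter for EC50/Emax. hM4-Gqi5 CHO-K1 cells carried Fluo-4 AM dye; test compounds (11 points, 1:3) preceded EC20 acetylcholine additions at 144 s and 230 s.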
SMILES,Emax at 30 µM,EC50
"Cc1cc(=O)n2nc(N3CCc4ncc(-c5cccnc5)cc4C3)c(C)c(C)c2n1 [Compound 1-129, 2,8,9-trimethyl-7-(3-(pyridin-3-yl)-7,8-dihydro-1,6-naphthyridin-6(5H)-yl)-4H-pyrimido[1,2-b]pyridazin-4-one]",91%,1.62 µM
"COc1ccsc1-c1cnc2c(c1)CN(c1nn3c(=O)cc(C(F)F)nc3c(C)c1C)CC2 [Compound 1-311, 2-(difluoromethyl)-7-(3-(3-methoxythiophen-2-yl)-7,8-dihydro-1,6-naphthyridin-6(5H)-yl)-8,9-dimethyl-4H-pyrimido[1,2-b]pyridazin-4-one]",79%,1.27 µM
"Cc1cc(=O)n2nc(N3CCc4ncc(-c5cnn(C6COC6)c5)cc4C3)c(C)cc2n1 [Compound 1-287, 2,8-dimethyl-7-(3-(1-(oxetan-3-yl)-1H-pyrazol-4-yl)-7,8-dihydro-1,6-naphthyridin-6(5H)-yl)-4H-pyrimido[1,2-b]pyridazin-4-one]",85%,1.21 µM
"COCc1cc(=O)n2nc(N3CCc4ncc(-c5cc(F)ccc5C)cc4C3)c(C)c(C)c2n1 [Compound 1-227, 7-(3-(5-fluoro-2-methylphenyl)-7,8-dihydro-1,6-naphthyridin-6(5H)-yl)-2-(methoxymethyl)-8,9-dimethyl-4H-pyrimido[1,2-b]pyridazin-4-one]",83%,0.135 µM
"Cc1cc(=O)n2nc(N3CCc4ncc(-c5ccccc5C)cc4C3)c(C)cc2n1 [Compound 1-237, 2,8-dimethyl-7-(3-(o-tolyl)-7,8-dihydro-1,6-naphthyridin-6(5H)-yl)-4H-pyrimido[1,2-b] pyridazin-4-one]",100%,0.365 µM
"Cc1c(N2CCc3ncc(-c4ccccc4OC(F)(F)F)cc3C2)nn2c(=O)ccnc2c1C [Compound 1-265, 8,9-dimethyl-7-(3-(2-(trifluoromethoxy)phenyl)-7,8-dihydro-1,6-naphthyridin-6(5H)-yl)-4H-pyrimido[1,2-b] pyridazin-4-one]",61%,0.929 µM
"Cc1cc2nccc(=O)n2nc1N1CCc2ncc(-c3c(C)nn(C)c3C)cc2C1 [Compound 1-424, 8-methyl-7-(3-(1,3,5-trimethyl-1H-pyrazol-4-yl)-7,8-dihydro-1,6-naphthyridin-6(5H)-yl)-4H-pyrimido[1,2-b] pyridazin-4-one]",84%,0.746 µM
"Cc1c(N2CCc3ncc(-c4cccnc4)cc3C2)nn2c(=O)cc(C(F)F)nc2c1C [Compound 1-155, 2-(difluoromethyl)-8,9-dimethyl-7-(3-(pyridin-3-yl)-7,8-dihydro-1,6-naphthyridin-6(5H)-yl)-4H-pyrimido[1,2-b]pyridazin-4-one]",91%,0.062 µM
"Cc1c(N2CCc3ncc(-c4cnccc4C(F)(F)F)cc3C2)nn2c(=O)cc(C(F)F)nc2c1C [Compound 1-189, 2-(difluoromethyl)-8,9-dimethyl-7-(3-(4-(trifluoromethyl)pyridin-3-yl)-7,8-dihydro-1,6-naphthyridin-6(5H)-yl)-4H-pyrimido[1,2-b]pyridazin-4-one]",48%,0.515 µM
"Cc1c(N2CCc3ncc(-c4ccccc4C(F)(F)F)cc3C2)nn2c(=O)ccnc2c1C [Compound 1-266, 8,9-dimethyl-7-(3-(2-(trifluoromethyl)phenyl)-7,8-dihydro-1,6-naphthyridin-6(5H)-yl)-4H-pyrimido[1,2-b] pyridazin-4-one]",81%,0.621 µM
"Cc1cc2nccc(=O)n2nc1N1CCc2ncc(-c3ncsc3C)cc2C1 [Compound 1-393, 8-methyl-7-(3-(5-methylthiazol-4-yl)-7,8-dihydro-1,6-naphthyridin-6(5H)-yl)-4H-pyrimido[1,2-b]pyridazin-4-one]",83%,1.05 µM
"Cc1cc2nccc(=O)n2nc1N1CCc2ncc(-c3cccc4c3CCC4)cc2C1 [Compound 1-436, 7-(3-(2,3-dihydro-1H-inden-4-yl)-7,8-dihydro-1,6-naphthyridin-6(5H)-yl)-8-methyl-4H-pyrimido[1,2-b]pyridazin-4-one]",78%,0.484 µM
"Cc1ccc(-c2cnc3c(c2)CN(c2nn4c(=O)cc(C)nc4c(C)c2C)CC3)cn1 [Compound 1-82, 2,8,9-trimethyl-7-(3-(6-methylpyridin-3-yl)-7,8-dihydro-1,6-naphthyridin-6(5H)-yl)-4H-pyrimido[1,2-b]pyridazin-4-one]",100%,0.145 µM
"COc1cc(-c2cnc3c(c2)CN(c2nn4c(=O)ccnc4cc2C)CC3)ccn1 [Compound 1-38, 7-(3-(2-methoxypyridin-4-yl)-7,8-dihydro-1,6-naphthyridin-6(5H)-yl)-8-methyl-4H-pyrimido[1,2-b]pyridazin-4-one]",84%,0.338 µM
"Cc1cc(=O)n2nc(N3CCc4ncc(-c5cnn(CC(F)(F)F)c5)cc4C3)c(C)cc2n1 [Compound 1-291, 2,8-dimethyl-7-(3-(1-(2,2,2-trifluoroethyl)-1H-pyrazol-4-yl)-7,8-dihydro-1,6-naphthyridin-6(5H)-yl)-4H-pyrimido[1,2-b]pyridazin-4-one]",82%,0.356 µM
"Cc1cc(=O)n2nc(N3CCc4ncc(-c5cn6ccnc6cc5C)cc4C3)c(C)c(C)c2n1 [Compound 1-131, 2,8,9-trimethyl-7-(3-(7-methylimidazo[1,2-a]pyridin-6-yl)-7,8-dihydro-1,6-naphthyridin-6(5H)-yl)-4H-pyrimido[1,2-b]pyridazin-4-one]",62%,1.76 µM
"Cc1cc(=O)n2nc(N3CCc4ncc(-c5cnn(C(F)F)c5)cc4C3)c(C)cc2n1 [Compound 1-215, 7-(3-(1-(difluoromethyl)-1H-pyrazol-4-yl)-7,8-dihydro-1,6-naphthyridin-6(5H)-yl)-2,8-dimethyl-4H-pyrimido[1,2-b]pyridazin-4-one]",85%,0.338 µM
"Cc1cc(F)c(F)c(-c2cnc3c(c2)CN(c2nn4c(=O)ccnc4c(C)c2C)CC3)c1 [Compound 1-341, 7-(3-(2,3-difluoro-5-methylphenyl)-7,8-dihydro-1,6-naphthyridin-6(5H)-yl)-8,9-dimethyl-4H-pyrimido[1,2-b]pyridazin-4-one]",75%,0.673 µM

# Results, then the molecule that gave them:
Emax at 30 µM,EC50,SMILES
79%,0.388 µM,"[2H]C1([2H])Cc2ncc(Nc3cccnc3C)cc2C([2H])([2H])N1c1nn2c(=O)ccnc2cc1C [Compound 2-163, 8-methyl-7-(3-((2-methylpyridin-3-yl)amino)-7,8-dihydro-1,6-naphthyridin-6(5H)-yl-5,5,7,7-d4)-4H-pyrimido[1,2-b]pyridazin-4-one]"
97%,1.82 µM,"Cc1cc2nccc(=O)n2nc1N1CCc2ncc(Nc3cncnc3C)cc2C1 [Compound 2-139, 8-methyl-7-(3-((4-methylpyrimidin-5-yl)amino)-7,8-dihydro-1,6-naphthyridin-6(5H)-yl)-4H-pyrimido[1,2-b]pyridazin-4-one]"
93%,0.329 µM,"Cc1ccc(Nc2cnc3c(c2)CN(c2nn4c(=O)ccnc4cc2C)CC3)c(F)n1 [Compound 2-115, 7-(3-((2-fluoro-6-methylpyridin-3-yl)amino)-7,8-dihydro-1,6-naphthyridin-6(5H)-yl)-8-methyl-4H-pyrimido[1,2-b]pyridazin-4-one]"
56%,1.65 µM,"Cc1cc2nccc(=O)n2nc1N1CCc2ncc(NC(=O)C3CC3)cc2C1 [Compound 2-108, N-(6-(8-methyl-4-oxo-4H-pyrimido[1,2-b]pyridazin-7-yl)-5,6,7,8-tetrahydro-1,6-naphthyridin-3-yl)cyclopropanecarboxamide]"
96%,0.029 µM,"Cc1c(N2CCc3ncc(Oc4ccccc4F)cc3C2)nn2c(=O)ccnc2c1C [Compound 3-3, 7-(3-(2-Fluorophenoxy)-7,8-dihydro-1,6-naphthyridin-6(5H)-yl)-8,9-dimethyl-4H-pyrimido[1,2-b]pyridazin-4-one]"
90%,0.029 µM,"Cc1c(N2CCc3ncc(N4CCOC(C)(C)C4)cc3C2)nn2c(=O)cc(C(F)F)nc2c1C [Compound 2-40, 2-(difluoromethyl)-7-(3-(2,2-dimethylmorpholino)-7,8-dihydro-1,6-naphthyridin-6(5H)-yl)-8,9-dimethyl-4H-pyrimido[1,2-b]pyridazin-4-one]"
89%,0.108 µM,"Cc1cc2nccc(=O)n2nc1N1CCc2ncc(N3CC(C)Oc4cc(F)ccc43)cc2C1 (stereo not shown) [Compound 2-55, 7-(3-(7-fluoro-2-methyl-2,3-dihydro-4H-benzo[b][1,4]oxazin-4-yl)-7,8-dihydro-1,6-naphthyridin-6(5H)-yl)-8-methyl-4H-pyrimido[1,2-b]pyridazin-4-one]"
94%,0.07 µM,"Cc1cc(=O)n2nc(N3CCc4ncc(N5CCCn6nccc65)cc4C3)c(C)cc2n1 [Compound 2-10, 7-(3-(6,7-dihydropyrazolo[1,5-a]pyrimidin-4(5H)-yl)-7,8-dihydro-1,6-naphthyridin-6(5H)-yl)-2,8-dimethyl-4H-pyrimido[1,2-b]pyridazin-4-one]"

# Reference: patent publication US20250101041A1, “POSITIVE ALLOSTERIC MODULATORS OF THE MUSCARINIC ACETYLCHOLINE RECEPTOR M4” (Vanderbilt University, priority 2022, published 2025)
